According to US12036300B2, “Methods and compositions for improving skin” (L'OREAL, priority 2021, dated 2024):

Assays:
[1] = tested on: co-culture models (Normal Human Epidermal Melanocytes and Normal Human Epidermal Keratinocytes); assay: Melanin synthesis inhibition in co-culture model; type: cell-based; details: co-culture on melanocytes and keratinocytes, once a day for 10 days; FIG. 5
Description: (§1) Tri-culture models, co-culture models, and single cell culture models were treated with a composition containing acetyl trifluoromethylphenyl valylglycine to assess the effects on different skin cells. Specifically, the three cultures for each of the tri-culture models (Normal Human Epidermal Melanocytes, Normal Human Epidermal Keratinocytes, and Normal Human Dermal Fibroblast), co-culture models (Normal Human Epidermal Melanocytes and Normal Human Epidermal Keratinocytes), and single cell culture models (Normal Human Epidermal Melanocytes) were grown for four days. The cultures were then treated once a day for 10 days with a composition containing 10% DMSO, water, and lipoic acid (Composition G) in an amount to deposit […] to the cell culture models, a composition containing 10% DMSO, water, and acetyl trifluoromethylphenyl valylglycine (Composition H) in an amount to deposit […] to the cell culture models, or a composition containing 10% DMSO, water, and acetyl trifluoromethylphenyl valylglycine (Composition I) in an amount to deposit […] to the cell culture models. The media for the cultures was changed each day over the ten-day period.
(§2) After the 10 days, the cells of the culture were lysed and the melanin content was measured using a procedure and equipment similar to that described in Example 2. […]

COX-2 = assay: qRT-PCR gene expression of COX-2 in NHEM after 10 days of treatment; type: cell-based, human; details: FIG. 3A
Description: (§3) The efficacy of acetyl trifluoromethylphenyl valylglycine to modulate key gene markers in the inflammatory pathway as it relates to post inflammatory hyperpigmentation conditions was evaluated. Specifically, four well plates were seeded with a single cell culture of normal human epidermal melanocyte (NHEM), and grown in a culture medium (namely, culture medium no. M254500, obtained from ThermoFisher™) and supplemented with Gibco™ human melanocyte growth supplement (namely, Human Melanocyte Growth Supplement-2 no. S0165, obtained from ThermoFisher™) at a density of 10,000 cells/cm^2 for 3 to 4 days.
(§4) The culture medium was then replaced by culture mediums containing different treatments. Specifically, the cell cultures were treated with 10 μL of one of Compositions C-E once a day for ten days (except weekends). After 10 days, the cells were trypsinized and centrifuged at 180×gravity for 7 minutes followed by RNA isolation using a QIAshredder cell lysate homogenizer no. […] The RNA was then quantified using the NanoDrop Spectrophotometer.
(§5) After RNA isolation was completed, samples of 1 μg of RNA from each cell culture was used for cDNA reactions for reverse transcription. […] The ΔΔCt values were then determined for each biological replicate by normalizing to the appropriate untreated control average ΔCt value. The ΔΔCt values were then used to calculate relative quantification (RQ) values.

[2] = tested on: human primary melanocytes; assay: Melanin content of human primary melanocyte cultures treated for ten days, with or without prostaglandin E2; type: cell-based; details: FIGS. 1 and 2
Description: Six cultures of human primary melanocytes were grown for four days. Thereafter, the cultures were treated with 10 μL of one of Compositions A-E each day for ten days. Composition A contained 0.005 wt. % of acetyl trifluoromethylphenyl valylglycine, 2 wt. % ethanol, and the remainder being water. Composition B contained 0.05 wt. % of acetyl trifluoromethylphenyl valylglycine, 2 wt. % ethanol, and the remainder being water. Composition C contained 30 nM of prostaglandin E2, 2 wt. % ethanol, and the remainder being water. Composition D contained 0.005 wt. % of acetyl trifluoromethylphenyl valylglycine, 30 nM of prostaglandin E2, 2 wt. % ethanol, and the remainder being water. Composition E contained 0.05 wt. % of acetyl trifluoromethylphenyl valylglycine, 30 nM of prostaglandin E2, 2 wt. % ethanol, and the remainder being water. All weight percentages for Compositions A-E were based on the total weight of the respective composition. […]
After the 10 days, the cells of the culture were lysed and the melanin content was measured. Specifically, the cells were stained with Fontana Masion Staining and measured with a plate reader. A BCA assay was performed to quantify the protein concentration. […] To eliminate the melanin content caused by increased NHEM cell number in the system, the final melanin level was calculated by dividing the protein content in each culture. […]

[3] = tested on: single cell culture models (Normal Human Epidermal Melanocytes); assay: Melanin synthesis inhibition in single cell culture model; type: cell-based; details: FIG. 5
Description: as §1, §2

p38 MAPK = assay: qRT-PCR gene expression of p38 in NHEM after 10 days of treatment; type: cell-based, human; details: FIG. 3B
Description: as §3, §4, §5

[4] = tested on: tri-culture model (Normal Human Epidermal Melanocytes, Normal Human Epidermal Keratinocytes, and Normal Human Dermal Fibroblast); assay: Melanin synthesis inhibition in tri-culture model; type: cell-based; details: 100 μM, tri-culture model (K/M/F), once a day for 10 days; FIG. 5
Description: as §1, §2

[5] = with 30 nM prostaglandin E2, NHEM
[6] = prostaglandin E2 alone (30 nM), NHEM

Structure (SMILES) | melanin synthesis [1] | level of COX-2 induced by prostaglandin E2 (COX-2; [5]) | melanin synthesis after induction by prostaglandin E2 ([2]; with 30 nM prostaglandin E2, once a day for ten days, melanin normalised to protein content) | inhibitory effect on melanin synthesis relative to tri-culture ([3]; melanocytes cultures compared with tri-culture) | melanin synthesis ([3]; melanocytes cultures, once a day for 10 days) | level of P38 MAPK induced by prostaglandin E2 (p38 MAPK; [5]) | L-Tyrosine-induced melanin synthesis [4] | COX-2 expression (COX-2; [6]) | melanin production ([2]; prostaglandin E2 alone (30 nM), once a day for ten days) | p38 MAPK expression (p38 MAPK; [6])
CC(=O)N(c1cccc(C(F)(F)F)c1)C(C(=O)NCC(=O)O)C(C)C (stereo not shown) [acetyl trifluoromethylphenyl valylglycine] | did not appear to inhibit melanin synthesis | significantly attenuated | reduces melanin synthesis | less than the observed in the tri-culture | an inhibitory effect was observed | significantly attenuated | inhibited L-Tyrosine-induced melanin synthesis | – | – | –
CCCCC[C@H](O)/C=C/[C@H]1[C@H](O)CC(=O)[C@@H]1C/C=C\CCCC(=O)O [prostaglandin E2, reference compound] | – | – | – | – | – | – | – | triggered the cascade | stimulates melanin production | triggered the cascade
